Laboratory results: patent publication US20130172414A1, “PHARMACEUTICAL COMPOSITION COMPRISING LEVOCARNITINE AND DOBESILATE” (TIANJIN NANKAI SHARE PHARMACEUTICAL SCIENCE & TECHNOLOGY …, priority 2010, published 2013)

Key:
[1] = system: mice; test: Mice acute toxicity test (Example 7); details: mice acute toxicity
Description: (§1) Toxicity Test According to the methods described in literatures (“Guiding principles for acute toxicity test of a chemical drug”, No. [H]GPT1-1, CENTER FOR DRUG EVALUATION, SFDA; Bojun Yuan et. al., “The Preclinical Safety Evaluation and Practice of New Drug”, Military Medical Science Press, 1997: 23-36[…] Bojun Yuan et. al., “Methods and Techniques for Drug ToxicologicalTest”, Chemical Industry Press, 2008: 200-210), the preparation of levocamitine and calcium dobesilate obtained from example 2 was tested for mice acute toxicity.

[2] = system: rats in chronic renal failure model; details: cited from earlier work
[3] = system: adenine-induced mice renal failure model; test: Pharmacodynamic test, chronic renal failure model (Example 5); type: in vivo, SPF grade Kunming mice; details: for Water content of renal tissue / blood urea nitrogen (BUN) / body weight after 4 weeks / renal index / serum creatinine (Scr): 350 mg/kg once per day for 4 weeks, n=10; for values of Scr and BUN as compared with the renal failure group: 350 mg/kg, 4 weeks
Procedure: Based on intergroup consistency principle, SPF grade Kunming mice (with a body weight of about 20 to 22 g, half male and half female) were randomly divided into 5 groups (n=10) with one of them as the control group. Except for control group, 300 mg/kg (20 ml/kg·d) of adenine was administrated given to mice once per day for successive 3 days by gavage, thereby to obtain adenine-induced mice renal failure model as described in the references (see for example Pingdong Zheng et. al, “The establishment of chronic renal failure animal model with adenine, Chinese Journal of Nephrology, 1989, 5(4): 342-344; Deyu Guo et. al., “The establishment of mice model with chronic renal insufficiency”, CHINESE JOURNAL OF LABORATORY ANIMAL SCIENCE, 2001, 11(3): 142-145; and Shuling Sun et. al, “The traditional Chinese medicinal intervention and pathological observations in mice chronic renal failure model”, ZHEJIANG JOURNAL OF INTEGRATED TRADITIONAL CHINESE AND WESTERN MEDICINE, 2002, 12(4): 221-222).
Thereafter, except for the control group, based on intergroup consistency principle, the remaining 4 groups were redivided randomly into 4 groups, renal failure group, levocarnitine (350 mg/kg) group, calcium dobesilate (350 mg/kg) group, as well as levocarnitine and calcium dobesilate group (350 mg/kg) (wherein the ratio of levocamitine and calcium dobesilate is 1:1). Except for the renal failure group, mice of each group were administrated at the given dosage once per day for successive 4 weeks. Then the data for the mice of each group such as body weight, blood urea nitrogen (BUN), serum creatinine (Scr), renal index and water content of renal tissue were determined.

[4] = Mice acute toxicity test (Example 7); details: mouse, in vivo
Description: as §1

[5] = system: ischemic/reperfused rat; details: cited from earlier work

| Compound | LD50 [1] | content of thromboxane Az in the homogenate of renal cortex [2] | level of Scr and BUN [2] | Water content of renal tissue [3] | blood urea nitrogen (BUN) [3] | body weight after 4 weeks [3] | renal index [3] | serum creatinine (Scr) [3] | values of Scr and BUN as compared with the renal failure group [3] | LD50 [4] | content of malonaldehyde (MDA) in renal tissue [5] | content of reduced glutathione (GSH) [5] | serum creatinine (Scr) and blood urea nitrogen (BUN) [5] |
| --- | --- | --- | --- | --- | --- | --- | --- | --- | --- | --- | --- | --- | --- |
| O=S(=O)([O-])c1cc(O)ccc1O.O=S(=O)([O-])c1cc(O)ccc1O.[Ca+2] [Calcium dobesilate, calcium dobesilate] | 10600 mg/kg | reduce notably | decreasing | 75.9 ± 1.8% | 11.8 ± 7.0 mmol/L | 31.6 ± 4.6 g | 7.2 ± 0.7 | 10.0 ± 9.2 µmol/L | decreased | – | – | – | – |
| C[N+](C)(C)C[C@H](O)CC(=O)[O-] [Levocarnitine, (R)-3-carboxy-2-hydroxy-N,N,N-trimethyl-1-propanaminium hydroxide] | – | – | – | 76.0 ± 2.0% | 9.7 ± 5.8 mmol/L | 32.3 ± 5.3 g | 7.0 ± 1.3 | 21.6 ± 11.8 µmol/L | decreased | 19200 mg/kg | reduce | increase | can reduce |
